One block for each molecule: values may come before it.
Key:
[1] = in vivo; settings: for AUC: goat, po, 7.5 mg/kg
Method: In order to minimise interindividual variations our experimental protocol was designed as a crossover (each animal was used as its own control). A five week wash-out period was allowed between crossovers. Six goats were used in this experiment.
First period: Fenbendazole (Panacur 2.5%) was administered orally at a dose rate of 7.5 mg/kg. Blood samples were taken prior to drug administration and 0.25, 0.5, 1, 2, 4, 8, 12, 24, 32, 48, 72 and 96 hours thereafter.
Second period: One hour before administration of fenbendazole (7.5 mg/kg) the animals received a dose of piperonyl butoxide (0.5 g/kg) given intramuscularly. Blood samples were taken as in the first period.
Plasma samples were analysed for fenbendazole by High Performance Liquid Chromatography.

[2] = system: hepatocytes cultured from rats
From the text: An experiment using hepatocytes cultured from rats has been initiated to determine the metabolic interactions of piperonyl butoxide and fenbendazole (50 micromoles).

[3] = system: benzimidazole resistant Ostertagia circumcincta; assay: Numbers of O. circumcincta in sheep at necropsy (dilution method); assay type: in vivo
Method: (§1) A study was carried out to determine the efficacy of the piperonyl butoxide: fenbendazole combination and to compare it with piperonyl-butoxide and fenbendazole alone against benzimidazole resistant abomasal parasites.
(§2) Twenty-four parasite naive Suffolk cross lambs were allocated into four groups of six. Each lamb received an oral dose of 6,000 benzimidazole resistant Ostertagia circumcincta and 2,400 benzimidazole resistant Haemonchus contortus.
(§3) Twenty-eight days after infection animals were treated as follows:
(§4) Group 2 Piperonyl butoxide (63 mg/kg) by stomach tube.
(§5) Group 3 Fenbendazole (5 mg/kg) by stomach tube.
(§6) Group 4 Piperonyl butoxide (63 mg/kg) and fenbendazole
(§7) (5 mg/kg) by stomach tube.
(§8) All lambs were faecal sampled and killed seven days after treatment (day 35). Nematode egg numbers were determined in faeces by the McMaster egg counting technique (Gordon and Whitlock (1939) J. Council for Scientific and Industrial Res., 12,50) and numbers of O. circumcincta were determined by the dilution method of Ritchie et al. (1966), Amer J. Vet. Res., 27, 659-667. Total abomasal counts of H. contortus were determined.

[4] = system: benzimidazole resistant Haemonchus contortus; assay: Total abomasal counts of H. contortus in sheep at necropsy; assay type: in vivo; settings: for numbers of H.contortus at necropsy, effect in words: 7 days after treatment; for Mean ±SD numbers of H. contortus in sheep killed 7 days after treatment: piperonyl butoxide 63 mg/kg and/or fenbendazole 5 mg/kg by stomach tube, no treatment 345 ± 69
Method: as §1, §2, §3, §4, §5, §6, §7, §8

[5] = system: benzimidazole resistant Ostertagia circumcincta and Haemonchus contortus; assay: Faecal egg counts in infected lambs (McMaster egg counting technique); assay type: in vivo
Method: as §1, §2, §3, §4, §5, §6, §7, §8

[6] = pretreatment with 2-diethylaminoethyl-2,2-diphenylvalerate hydrochloride and piperonyl butoxide; Food Chem. Toxicol. 1992, 30(12), 1021-30; cited from earlier work

SMILES: COC(=O)Nc1nc2ccc([S+]([O-])c3ccccc3)cc2[nH]1 (stereo not shown) [Fenbendazole sulfoxide, fenbendazole sulfoxide]
AUC ([1]; Area under plasma-concentration-time curve (Active alone), active alone, goats, fenbendazole 7.5 mg/kg oral): 7720 ng·h/mL
concentrations of the sulfoxide and sulfone metabolites [2]: much reduced

area under the plasma concentration-time curve (AUC), change in words [1]: significant increase
residence time, change in words [1]: significantly prolonged
AUC ([1]; Area under plasma-concentration-time curve (Active alone)): 4170 ng·h/mL
SMILES: COC(=O)Nc1nc2ccc(Sc3ccccc3)cc2[nH]1 [Fenbendazole, fenbendazole]
AUC ([1]; Area under plasma-concentration-time curve (Active plus piperonyl butoxide)): 16600 ng·h/mL
reduction of number of O.circumcincta in the abomasa, in words ([3]; at necropsy, alone): Neither piperonyl butoxide nor fenbendazole alone significantly reduced
Mean ±SD numbers of O. circumcincta in sheep killed 7 days after treatment ([3]; piperonyl butoxide 63 mg/kg and/or fenbendazole 5 mg/kg by stomach tube, no treatment 2985 ± 654): 2875 ± 1308
numbers of H.contortus at necropsy, effect in words [4]: significantly reduced
Mean ±SD numbers of H. contortus in sheep killed 7 days after treatment [4]: 58 ± 29
Mean ±SD faecal egg counts in sheep seven days after treatment ([5]; piperonyl butoxide 63 mg/kg and/or fenbendazole 5 mg/kg by stomach tube, no treatment 491 ± 267): 100 ± 84 Eggs per gram of faeces
reduction in faecal egg counts ([5]; seven days after treatment): 79.7%

SMILES: CCCCOCCOCCOCc1cc2c(cc1CCC)OCO2 [Piperonyl butoxide, piperonyl butoxide]
effect on oxidative metabolism of fenbendazole by rat liver cells [2]: inhibiting the oxidative metabolism of fenbendazole
numbers of H.contortus at necropsy, effect in words [4]: no effect
Mean ±SD numbers of H. contortus in sheep killed 7 days after treatment [4]: 320 ± 133

SMILES: c1ccc2[nH]c(-c3cscn3)nc2c1 [thiabendazole]
acute toxic effects on the kidneys of mice [6]: enhanced

Source: patent US5744494A, “Synergistic compositions containing benzimidazole anthelmintics and methylenedioxyphenyl compounds” (priority 1993, dated 1998)
